Results as given in PMC9919490, “Synthesis and Biological Evaluation of Novel Dispiro-Indolinones with Anticancer Activity” (Molecules, 2023).

Assays:
[1] = parameters: method as in PMID 22524527, PMID 11495595, PMID 20218717; conditions: Figure 3; cited from earlier work
[2] = test system: LNCaP; conditions: MTT tests; cited from earlier work
[3] = test system: HCT116; conditions: MTT tests; cited from earlier work
[4] = test system: PC3 cells; assay: MTT cytotoxicity assay, PC3 (p53 neg); type: cell-based
Method: (§1) The synthesized compounds were tested for their ability to block the proliferation of the selected model cell lines: LNCaP (p53+), PC3 (p53-), HCT^wt (p53+), and HCT^−/− (p53-) cells. The assay was carried out using the standard MTT (3-(4,5-dimethylthiazol-2-yl)2,5-diphenyl tetrazolium bromide) assay based on the modified approach reported by Ferrari and colleagues. […] Differences in IC50 values against these cell lines were used to assess the selectivity of the compounds.
(§2) Model cell lines were purchased from the in stock collection of the N.N. Blokhin Russian Cancer Research Center (RAMS). Cells were accurately maintained in the recommended media, supplemented with 10% heat-inactivated FBS (Invitrogen) and 2 mmol/L L-glutamine (Invitrogen).
(§3) First, 4000 cells per well were plated out in 140 µL of DMEM (with 10% FBS) in 96-well plates and incubated in 5% CO2 for 24 h at 37 °C without treatment. […] The cells were treated for 48 h with […] (eight dilutions) concentrations of the substances (each in triplicate) or doxorubicin (0.3 nM–600 nM, eight dilutions) as a control substance. After the incubation, 15 µL of MTT solution in PBS (5 mg/mL) was added, and the cells were incubated for 2 h, followed by removal of the media and addition of 120 µL of DMSO. […] Cell survival rates were determined by the comparison of optical density with the corresponding untreated control cell culture. Dose-dependent curves and the corresponding IC50 values were calculated using “GraphPad Prism 6” software (GraphPad Software, Inc., San Diego, CA, USA).

[5] = test system: HCT^−/− cells; assay: MTT cytotoxicity assay, HCT^−/− (p53 neg); type: cell-based; conditions: 48 h
Method: as §1, §2, §3

[6] = test system: HCT^wt cells; assay: MTT cytotoxicity assay, HCT^wt (p53 pos); type: cell-based; conditions: 48 h
Method: as §1, §2, §3

[7] = test system: LNCaP cells; assay: MTT cytotoxicity assay, LNCaP (p53 pos); type: cell-based; conditions: 48 h
Method: as §1, §2, §3

[8] = test system: SJSA1 human osteosarcoma cells; conditions: cited from earlier work
[9] = test system: LNCaP cells expressing AR; parameters: method as in PMID 22524527, PMID 11495595, PMID 20218717; conditions: Figure 3; cited from earlier work
[10] = test system: HepG2 cells; parameters: method as in PMID 22524527, PMID 11495595, PMID 20218717; conditions: Figure 3; cited from earlier work

| Structure (SMILES) | IC50 ([4]; 48 h) [µM] | IC50 [5] [µM] | IC50 [6] [µM] | IC50 [7] [µM] | further results |
| --- | --- | --- | --- | --- | --- |
| O=C1NC(=S)N[C@@]12O[C@H](CO)[C@@H](O)[C@H](O)[C@H]2O [XVIII] | – | – | – | – | Ki [1]: 0.007 ± 0.0011 µM |
| CCOc1cc(C(C)(C)C)ccc1C1=N[C@@](C)(c2ccc(Cl)cc2)[C@@](C)(c2ccc(Cl)cc2)N1C(=O)N1CCN(CCCS(C)(=O)=O)CC1 [RG-7112] | – | – | – | – | CC50 [2]: 0.18 µM; CC50 [3]: 0.54 ± 0.12 µM |
| CN1C[C@H](c2cccc(Cl)c2)[C@]2(NC(=S)N(c3ccc(F)c(Cl)c3)C2=O)[C@]12C(=O)Nc1ccc(Cl)cc12 (racemic) [Compound 43] | 5.7 ± 2.6 | 9.5 ± 4.9 | 9.3 ± 4.6 | 3.2 ± 1.6 | – |
| COc1cc(NC(=O)C[C@@]2(C)C[C@H](c3cccc(Cl)c3)[C@@H](c3ccc(Cl)c(F)c3)N([C@H](CS(=O)(=O)C(C)(C)C)C3CC3)C2=O)ccc1C(=O)O [AM-7209] | – | – | – | – | IC50 [8]: 0.0016 µM |
| CN1C[C@H](c2ccccc2Cl)[C@]2(NC(=S)N(c3ccc(O)cc3)C2=O)[C@]12C(=O)Nc1ccc(Cl)cc12 (racemic) [Compound 55] | 15.1 ± 1.2 | > 100 | > 100 | 7 ± 1 | – |
| CN1C[C@H](c2ccc(Cl)cc2)[C@]2(NC(=S)N(c3ccc(F)c(Cl)c3)C2=O)[C@]12C(=O)Nc1ccc(Cl)cc12 (racemic) [Compound 42] | > 100 | > 100 | > 100 | > 100 | – |
| CN1C[C@H](c2ccc(Cl)cc2)[C@]2(NC(=S)N(c3ccccc3)C2=O)[C@]12C(=O)Nc1ccc(Cl)cc12 (racemic) [Compound 12] | > 100 | > 100 | > 100 | > 100 | – |
| CC(c1ccccc1)N1C(=O)C2(NC1=S)C(c1ccc(Cl)cc1)CN(C)C21C(=O)Nc2ccc(Br)cc21 (mixture of isomers) [Compound 65] | > 100 | > 100 | > 100 | > 100 | – |
| CN1C[C@H](c2ccncc2)[C@]2(NC(=S)N(c3ccccc3)C2=O)[C@]12C(=O)Nc1ccc(Cl)cc12 (racemic) [Compound 21] | > 100 | > 100 | 50.5 ± 10.2 | > 100 | – |
| CN1C[C@H](c2ccc(Cl)cc2)[C@]2(NC(=S)N(c3ccc(F)cc3)C2=O)[C@]12C(=O)Nc1ccc(Br)cc12 (racemic) [Compound 40] | > 100 | > 100 | > 100 | > 100 | – |
| CN1CC(c2ccccc2)C2(NC(=S)N(c3ccccc3)C2=O)C12C(=O)Nc1ccccc12 (stereo not drawn) [Compound 4] | – | > 100 | > 100 | – | IC50 ([4]; Homo sapiens, PC-3, 48 h): > 100 µM; melting point: 211 to 212 °C; IC50 ([7]; Homo sapiens, LNCaP): > 100 µM |
| CN1C[C@H](c2ccccc2Cl)[C@]2(NC(=S)N(c3ccc(Cl)cc3)C2=O)[C@]12C(=O)Nc1ccc(Cl)cc12 (racemic) [Compound 36] | > 100 | > 100 | > 100 | > 100 | – |
| C#CCOc1ccc([C@H]2CN(C)[C@@]3(C(=O)Nc4ccc(Br)cc43)[C@@]23NC(=S)N(c2ccc(OCC)cc2)C3=O)cc1 (racemic) [Compound 34] | > 100 | > 100 | > 100 | > 100 | – |
| CN1C[C@H](c2cccc(Cl)c2)[C@]2(NC(=S)N(c3ccccc3)C2=O)[C@]12C(=O)Nc1ccc(Cl)cc12 (racemic) [Compound 23] | > 100 | 50.7 ± 12.6 | 50.7 ± 8.9 | > 100 | – |
| COc1ccc([C@H]2CN(C)[C@@]3(C(=O)Nc4ccccc43)[C@@]23NC(=S)N(c2ccc(F)c(Cl)c2)C3=O)cc1 (racemic) [Compound 41] | > 100 | > 100 | > 100 | > 100 | – |
| CC(c1ccccc1)N1C(=O)C2(NC1=S)C(c1ccccc1Cl)CN(C)C21C(=O)Nc2ccc(Cl)cc21 (mixture of isomers) [Compound 64] | > 100 | > 100 | 24 ± 6.7 | > 100 | – |
| C#CCN1C(=O)[C@]2(c3ccccc31)N(C)C[C@H](c1cccc(Cl)c1)[C@]21NC(=S)N(c2ccc(OC)c(Cl)c2)C1=O [Compound 69] | – | > 100 | > 100 | – | IC50 ([4]; Homo sapiens, PC-3, 48 h): > 100 µM; melting point: 199 to 200 °C; IC50 ([7]; Homo sapiens, LNCaP): > 100 µM |

| Structure (SMILES) | IC50 ([4]; 48 h) [µM] | IC50 [5] [µM] | IC50 [6] [µM] | IC50 [7] [µM] | further results |
| --- | --- | --- | --- | --- | --- |
| CN1C[C@H](c2ccc(Cl)cc2)[C@]2(NC(=S)N(c3ccc(O)cc3)C2=O)[C@]12C(=O)Nc1ccc(Cl)cc12 (racemic) [Compound 52] | > 100 | > 100 | > 100 | > 100 | – |
| CN1C[C@H](c2ccncc2)[C@]2(NC(=S)N(c3ccccc3)C2=O)[C@]12C(=O)Nc1ccc(Br)cc12 (racemic) [Compound 20] | > 100 | > 100 | > 100 | > 100 | – |
| CCOc1ccc(N2C(=O)[C@]3(NC2=S)[C@@H](c2ccc(F)cc2)CN(C)[C@@]32C(=O)Nc3ccc(Br)cc32)cc1 (racemic) [Compound 31] | > 100 | > 100 | > 100 | > 100 | – |
| Cc1ccc(N2C(=S)N(c3ccc(C#N)c(C(F)(F)F)c3)C(=O)C23CCC3)cc1 [XVII] | – | – | – | – | IC50 [9]: 0.124 µM |
| CN1C[C@H](c2ccccc2Cl)[C@]2(NC(=S)N(c3ccc(O)cc3)C2=O)[C@]12C(=O)Nc1ccccc12 (racemic) [Compound 53] | > 100 | > 100 | > 100 | > 100 | – |
| CN1C[C@H](c2ccccc2)[C@]2(NC(=S)N(c3ccccc3)C2=O)[C@]12C(=O)Nc1ccc(Br)cc12 (racemic) [Compound 5] | 4.6 ± 2.5 | 12.5 ± 3.2 | 10.5 ± 2.3 | 2.2 ± 0.8 | – |
| CN1C[C@H](c2ccccc2Cl)[C@]2(NC(=S)N(c3ccccc3)C2=O)[C@]12C(=O)Nc1ccccc12 (racemic) [Compound 9] | > 100 | 23.1 ± 6.6 | 21.7 ± 5.8 | > 100 | – |
| CN1C[C@H](c2ccc(Cl)cc2)[C@]2(NC(=S)N(c3ccc(Cl)cc3)C2=O)[C@]12C(=O)Nc1ccc(Cl)cc12 (racemic) [Compound 37] | > 100 | > 100 | > 100 | > 100 | – |
| CCOc1ccc(N2C(=O)[C@]3(NC2=S)[C@@H](c2ccc(Cl)c(Cl)c2)CN(C)[C@@]32C(=O)Nc3ccccc32)cc1 (racemic) [Compound 27] | > 100 | > 100 | > 100 | > 100 | – |
| COc1ccc(C2CN(C)C3(C(=O)Nc4ccc(Cl)cc43)C23NC(=S)N(c2ccc(Cl)cc2)C3=O)cc1OC (stereo not drawn) [Compound 39, 1-(4-chlorophenyl)-4’-(3,4-dimethoxyphenyl)-1’-methyl-5’’’-chloro-2-thiooxodispiro[imidazolidine-4,3’-pyrrolidine-2’,3”-indoline]-2”,5-dione] | > 100 | > 100 | > 100 | > 100 | – |
| CN1CC(c2ccc(Cl)cc2)C2(NC(=S)N(c3ccc(O)cc3)C2=O)C12C(=O)Nc1ccccc12 (stereo not drawn) [Compound 50, 1-(4-hydroxyphenyl)-4’-(4-chlorophenyl)-1’-methyl-2-thiooxodispiro[imidazolidine-4,3’-pyrrolidine-2’,3”-indoline]-2”,5-dione] | 4.65 ± 2.3 | > 100 | 6.9 ± 3.1 | 18 ± 4.7 | – |
| N#Cc1cc(N2C(=O)C3(CCC3)N(c3ccc(C(=O)NCCCN4CCCC4)c(F)c3)C2=S)ccc1C(F)(F)F [XIX] | – | – | – | – | IC50 [10]: < 1 µM |
| C#CCOc1ccc(N2C(=O)[C@]3(NC2=S)[C@@H](c2ccc(Cl)cc2)CN(C)[C@@]32C(=O)Nc3ccccc32)cc1 [Compound 35] | – | > 100 | > 100 | – | IC50 ([4]; Homo sapiens, PC-3, 48 h): > 100 µM; IC50 ([7]; Homo sapiens, LNCaP): > 100 µM |
| COc1ccc(N2C(=O)[C@]3(NC2=S)[C@@H](c2cccc(Cl)c2)CN(C)[C@@]32C(=O)Nc3ccccc32)cc1 (racemic) [Compound 32] | > 100 | > 100 | > 100 | > 100 | – |
| CN1C[C@H](c2ccccn2)[C@]2(NC(=S)N(c3ccccc3)C2=O)[C@]12C(=O)Nc1ccc(Br)cc12 (racemic) [Compound 17] | > 100 | 7.6 ± 3.2 | 5.6 ± 2.3 | > 100 | – |
| COc1ccc([C@H]2CN(C)[C@@]3(C(=O)Nc4ccccc43)[C@@]23NC(=S)N(c2ccc(F)c(Cl)c2)C3=O)cc1OC (racemic) [Compound 44] | 10.2 ± 2.3 | > 100 | 35 ± 16.2 | 8.6 ± 1.8 | – |
